Data reported in US10413538B2, “Administration of karenitecin for the treatment of platinum and/or taxane chemotherapy-resistant or -refractory advanced ovarian cancer” (priority 2013, dated 2019).

What was measured:
[1] = Preclinical toxicology, oral single daily doses for five consecutive days; conditions: beagle dogs
[2] = tested on: panel of over twenty (20) human cancer cell lines; test: In vitro studies on a panel of human cancer cell lines; type: cell-based
[3] = Glucuronidation / metabolism; type: in vitro ADME
[4] = Lactone stability and lactone half-life in humans/plasma; type: in vivo, human
[5] = in vivo, iv
[6] = tested on: MDR/MRP, Breast Cancer Resistance Protein (BCRP); conditions: cited from earlier work
[7] = tested on: stage III/IV advanced epithelial ovarian cancer resistant or refractory to platinum- and taxane-based chemotherapy; test: Phase III clinical study of Karenitecin versus Topotecan: efficacy (PFS, OS); type: in vivo, human
Method: The Primary Endpoint of the disclosed Phase III clinical study was Progression Free Survival (“PFS”); which was defined as the time period from the date of randomization to the date of first radiographically documented Progressive Disease (“PD”) or date of death due to any cause, taking either event date that occurred first. The date of PD was determined by radiographical objective disease (RECIST) measurement method. The Secondary Endpoints of the disclosed Phase III clinical study included: (i) Overall Survival (hereinafter “OS”), defined as the time from the date of randomization to the date of death due to any cause; (ii) Incidence of anemia, defined as the proportion of patients who experience ≥grade 3 anemia based on National Cancer Institute Common Terminology Criteria for Adverse Events (NCI-CTCAE) criteria at any time post-baseline after receiving study treatment; (iii) Incidence of neutropenia (including febrile neutropenia), defined as the proportion of patients who experience ≥grade 3 neutropenia based on NCI-CTCAE criteria at any time post-baseline after receiving study treatment; and (iv) Incidence of thrombocytopenia, defined as the proportion of patients who experience ≥grade 3 thrombocytopenia based on NCI-CTCAE criteria at any time post-baseline after receiving study treatment.
All patients admitted to this Phase III clinical trial were documented to be platinum- and/or taxane-resistant or refractory and have incurable disease. […] It is important to note that, currently, there is no FDA-approved chemotherapeutic drug for this specific aforementioned indication.
Approximately 80 study centers participated in this Phase III clinical study. The primary endpoint was Progression Free Survival (PFS), defined as the time period from the date of randomization to the date of first radiographically documented progressive disease or disease progression (“PD”) or date of death due to any cause, taking the event date that occurs first.
The primary endpoint was Progression Free Survival (PFS); defined as the time period from the date of randomization to the date of first radiographically documented progressive disease (PD) or date of death due to any cause, taking the event date that occurs first. The date of PD was determined by radiographically objective disease (RECIST) measurement. Secondary Endpoints: • Overall Survival (OS), defined as the time from the date of randomization to the date of death due to any cause. • Incidence of anemia, defined as the proportion of patients who experience ≥grade 3 anemia based on National Cancer Institute Common Terminology Criteria for Adverse Events (NCI-CTCAE) criteria at any time post-baseline after receiving study treatment. • Incidence of neutropenia (including febrile neutropenia), defined as the proportion of patients who experience ≥grade 3 neutropenia based on NCI-CTCAE criteria at any time post-baseline after receiving study treatment. • Incidence of thrombocytopenia, defined as the proportion of patients who experience ≥grade 3 thrombocytopenia based on NCI-CTCAE criteria at any time post-baseline after receiving study treatment.
Patients underwent procedures throughout four (4) defined periods in this study, which are briefly described below. Various clinical, laboratory, and disease evaluations were required for each of these for each periods.
Period I (Screening and Randomization): Patient eligibility was determined by compliance with protocol-specified inclusion and exclusion criteria. Patients who signed the informed consent, and successfully complete the screening process, including documentation of disease status by radiographic measures, were randomized to receive study treatment.
Period III (End of Treatment): Within ±3 days of date of treatment discontinuation, end-of treatment procedures will be conducted during Period III.

advanced ovarian cancer = test: Phase II study in advanced ovarian cancer patients who had failed prior treatments; type: in vivo, human
Excerpt: Intravenous administration of Karenitecin has been evaluated in three Phase I clinical studies in patients with the following cancer types: (i) advanced solid tumors (adult patients) (see, e.g., Schilsky, R. L., Hausheer, F. H., et al., Phase I trial of Karenitecin administered intravenously daily for five consecutive days in patients with advanced solid tumors using accelerated dose titration [abstract]. ASCO Abstract 758 (2000)); (ii) refractory or recurrent solid tumors (pediatric patients); and (iii) recurrent malignant glioma (adult patients). Intravenous administration of Karenitecin has also been evaluated in four Phase 2 clinical studies in adult patients with the following cancer types: (i) primary malignant glioma; (ii) treatment of persistent or recurrent epithelial ovarian or primary peritoneal carcinoma in heavily pre-treated patients; (iii) malignant melanoma (see, e.g., Hausheer, F. H., et al., Phase II trial of Karenitecin (BNP1350) in malignant melanoma: clinical and translational study [abstract]. ASCO Abstract 7554 (2004); and (iv) relapsed or refractory non-small cell lung cancer (see, e.g., Miller, A. A., et al., MR for the Cancer and Leukemia Group B. Phase II trial of Karenitecin in patients with relapsed or refractory advanced non-small cell lung cancer (CALGB 30004) Lung Cancer 48:399-407 (2005)).

[8] = tested on: MDR/MRP, Breast Cancer Resistance Protein (BCRP)

With `CC[C@@]1(O)C(=O)OCc2c1cc1n(c2=O)Cc2c-1nc1ccccc1c2CC[Si](C)(C)C` [Karenitecin, (4S)-4-ethyl-4-hydroxy-11-[2-(trimethylsilyl)ethyl]-1H-pyrano[3′:4′:6,7]indolizino[1,2-b]quinoline-3,14(4H,12H)-dione] the “oral MTD relative to intravenous (I.V.) MTD” value [1] was “approximately 2 times”, the “concentrations for inhibiting the growth of human and animal tumor cells in vitro” value [2] was “nanomolar or sub-nanomolar concentrations” and the “antitumor potency compared with Topotecan or SN-38” value ([2]; over twenty human cancer cell lines) was “significantly more potent antitumor agent than either Topotecan or SN-38”. The “A-ring or B-ring glucuronidation” value [3] was “does not undergo A-ring or B-ring glucuronidation”, the “half-life in active lactone form in plasma compared with other commercially-available camptothecins” value [4] was “longer half-life in its active lactone form in plasma” and the toxicities observed [5] was “reversible myelosuppression (predominantly neutropenia), diarrhea, emesis and mucositis (canine)”. For the same compound, the “sensitivity to tumor-mediated drug resistance mechanisms including BCRP” value [6] was “insensitive to all commonly-known tumor-mediated drug resistance mechanisms”, the “overall survival hazard ratio, Karenitecin vs Topotecan” value (from here on “overall survival hazard ratio”) ([7]; Adenocarcinoma (grade ≥2) not otherwise specified, P-value 0.7893) was 0.898 and the “PFS HR, Karenitecin vs Topotecan” value ([7]; Adenocarcinoma (grade ≥2) not otherwise specified, P-value=0.3700) was 0.684. For the same compound, the “PFS HR, Karenitecin vs Topotecan” value ([7]; Best response SD after 6 cycles in a first-line setting, P-value=0.9908) was 0.992, the “PFS HR, Karenitecin vs Topotecan” value ([7]; ECOG Performance Status 0, P-value=0.0249) was 0.662 and the “PFS HR, Karenitecin vs Topotecan” value ([7]; ECOG Performance Status 2, P-value=0.7481) was 0.896. For the same compound, the “PFS HR, Karenitecin vs Topotecan” value ([7]; FIGO Stage 111B, P-value=0.6225) was 0.722, the “overall survival hazard ratio” value ([7]; FIGO Stage IV, P-value 0.4516) was 0.892 and the “PFS HR, Karenitecin vs Topotecan” value ([7]; FIGO Stage IV, all events, P-value=0.0556) was 0.741. The “PFS HR, Karenitecin vs Topotecan” value ([7]; FIGO Stage IV, first 254 PFS events, P-value=0.0260) was 0.669, the “overall survival hazard ratio” value ([7]; Histological Stage: G1-well differentiated, P-value 0.974) was 0.9612 and the “PFS HR, Karenitecin vs Topotecan” value ([7]; Histological Stage: G1-well differentiated, P-value=0.8561) was 0.904. The “PFS HR, Karenitecin vs Topotecan” value ([7]; Histological Stage: G2-moderately differentiated, P-value=0.2982) was 0.835, the “overall survival hazard ratio” value ([7]; Histopathology Class: Undifferentiated carcinoma, P-value 0.701) was 0.6426 and the “median PFS advantage in favor of Karenitecin” value ([7]; Histopathology class: Mucinous adenocarcinoma subtype) was 2 month. For the same compound, the “overall survival hazard ratio” value ([7]; Histopathology class: Mucinous adenocarcinoma, P-value 0.7321) was 0.841, the “PFS HR, Karenitecin vs Topotecan” value ([7]; Histopathology class: serous adenocarcinoma, P-value=0.2829) was 0.873 and the “PFS HR, Karenitecin vs Topotecan” value ([7]; Ovary as primary site of disease, P-value=0.2606) was 0.885. The “median progression-free survival (PFS) advantage in favor of Karenitecin (as compared with Topotecan)” value ([7]; overall trial population, IRC) was “greater than 6 week”, the “PFS Hazard Ratio (HR), Karenitecin vs Topotecan” value ([7]; overall trial population, P-value=0.261) was 0.885 and the “PFS HR, Karenitecin vs Topotecan” value ([7]; resistant subject sub-population, P-value=0.144) was 0.822. The “PFS HR, Karenitecin vs Topotecan” value ([7]; subpopulation refractory or resistant and/or mucinous, first 254 PFS events, P-value=0.0849) was 0.770, the “Time to Progression (TTP) compared with historical results reported with Topotecan” value (advanced ovarian cancer) was “prolonged Time to Progression (TTP)” and the “susceptibility to MDR/MRP drug resistance” value [8] was “lacks susceptibility to MDR/MRP drug resistance”.
